The text below walks through data of US8410310B2, “Trypsin-like serine protease inhibitors, and their preparation and use” (The Medicines Company (Leipzig) GmbH, priority 2006, dated 2013).

What all share (type): biochemical
In experiment [1] the target is Xa (Homo sapiens, UniProt P00742). As to the kind of experiment: Determination of inhibition constants for Xa. Here is the method:
(§1) The inhibitory effect for the individual enzymes was determined in analogy to a previously disclosed method (Stürzebecher et al., 1997).
(§2) For zero order kinetics, the reaction was stopped after 20 min by adding 25 μl of acetic acid (50% v/v), and the absorption at 405 nm was determined using a Microplate Reader (Multiscan Ascent, from Thermo). In the case of pseudo-first order kinetics, the reaction rates in the equilibrium state were ascertained by recording the reaction kinetics. The Ki values were ascertained either in accordance with Dixon (1953) by linear regression using a computer program or by parameter fitting in accordance with the rate equation for competitive inhibition. The Ki values are the average of at least two determinations.

The target of experiment [2] is Thrombin (Homo sapiens, UniProt P00734). Description: Determination of inhibition constants for thrombin. How it is done:
as §1, §2

Experiment [3] addresses plasmin (Homo sapiens, UniProt P00747). As to the kind of experiment: Determination of inhibition constants for plasmin. Details: purchased Calbiochem. How it is done: as §1, §2
The target of experiment [4] is plasma kallikrein (Homo sapiens, UniProt P03952). Description: Determination of inhibition constants for PK. Set-up: purchased Enzyme Research Lab. / Enzyme Research Laboratories. How it is done: as §1, §2
Chain of plasma kallikrein (P03952 391-638 limits assumed): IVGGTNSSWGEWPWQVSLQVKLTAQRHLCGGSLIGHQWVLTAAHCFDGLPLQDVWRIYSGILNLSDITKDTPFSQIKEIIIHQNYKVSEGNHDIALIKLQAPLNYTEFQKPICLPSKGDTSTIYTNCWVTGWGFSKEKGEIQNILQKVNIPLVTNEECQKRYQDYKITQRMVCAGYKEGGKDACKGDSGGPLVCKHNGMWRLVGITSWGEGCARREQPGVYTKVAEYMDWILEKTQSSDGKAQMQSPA
Chain of plasma kallikrein (P03952 20-390 partner limits assumed): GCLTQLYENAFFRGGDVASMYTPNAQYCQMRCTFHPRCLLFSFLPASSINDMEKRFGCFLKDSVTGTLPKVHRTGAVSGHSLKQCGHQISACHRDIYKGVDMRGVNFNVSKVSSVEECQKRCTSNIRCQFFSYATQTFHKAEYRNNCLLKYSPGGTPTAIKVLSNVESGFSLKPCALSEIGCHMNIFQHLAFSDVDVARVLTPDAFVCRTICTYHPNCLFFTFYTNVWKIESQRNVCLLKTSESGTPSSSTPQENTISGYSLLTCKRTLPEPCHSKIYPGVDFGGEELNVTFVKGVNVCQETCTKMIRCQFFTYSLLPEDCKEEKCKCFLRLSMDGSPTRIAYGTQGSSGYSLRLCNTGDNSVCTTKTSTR
The mark [5] stands for this setting: 25° C., substrate Chromozym PL, pH 8.0, read-out: Plasmin [Ki].
[6] abbreviates: summary of results, read-out: Ki value of the plasmin inhibition.
[7] abbreviates: 25° C., substrate S2302, pH 8.0, read-out: PK [Ki].
Where [8] appears, read: summary of results, read-out: Ki value of the plasma kallikrein inhibition.

Read-outs that look alike come from different tables or passages of the source.

Broadly, the Ki is a measure of affinity in units of concentration, obtained from inhibition or displacement.

Chain of plasmin (P00747 581-810 limits assumed): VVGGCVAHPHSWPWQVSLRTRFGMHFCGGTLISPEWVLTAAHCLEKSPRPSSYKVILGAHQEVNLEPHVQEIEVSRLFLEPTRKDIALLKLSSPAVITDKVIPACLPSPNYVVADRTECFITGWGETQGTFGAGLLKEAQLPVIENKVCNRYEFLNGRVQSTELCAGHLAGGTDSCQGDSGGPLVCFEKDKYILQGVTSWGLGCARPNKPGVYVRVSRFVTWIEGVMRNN
Chain of plasmin (P00747 97-580 partner limits assumed): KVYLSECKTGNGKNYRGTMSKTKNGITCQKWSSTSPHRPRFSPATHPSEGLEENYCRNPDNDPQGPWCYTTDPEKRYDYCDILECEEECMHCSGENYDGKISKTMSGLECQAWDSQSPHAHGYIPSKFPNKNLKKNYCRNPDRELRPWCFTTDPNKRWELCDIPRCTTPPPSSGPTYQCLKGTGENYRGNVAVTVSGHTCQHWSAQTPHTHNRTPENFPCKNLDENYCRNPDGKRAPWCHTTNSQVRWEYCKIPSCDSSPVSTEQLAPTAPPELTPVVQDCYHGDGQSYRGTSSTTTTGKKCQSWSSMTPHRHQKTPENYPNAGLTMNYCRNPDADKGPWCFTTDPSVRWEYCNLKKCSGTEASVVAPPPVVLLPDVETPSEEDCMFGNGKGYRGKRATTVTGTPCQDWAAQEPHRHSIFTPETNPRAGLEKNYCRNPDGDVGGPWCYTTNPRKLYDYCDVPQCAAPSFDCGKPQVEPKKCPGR
Chain of Xa (P00742 235-488 limits assumed): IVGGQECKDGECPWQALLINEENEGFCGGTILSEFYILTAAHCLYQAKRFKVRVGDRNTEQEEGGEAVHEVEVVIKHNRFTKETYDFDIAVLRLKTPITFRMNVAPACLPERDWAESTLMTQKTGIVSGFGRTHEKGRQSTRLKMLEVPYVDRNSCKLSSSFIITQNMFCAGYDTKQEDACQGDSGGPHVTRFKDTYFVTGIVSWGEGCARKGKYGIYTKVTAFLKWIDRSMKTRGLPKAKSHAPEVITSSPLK
Chain of Xa (P00742 41-179 limits assumed): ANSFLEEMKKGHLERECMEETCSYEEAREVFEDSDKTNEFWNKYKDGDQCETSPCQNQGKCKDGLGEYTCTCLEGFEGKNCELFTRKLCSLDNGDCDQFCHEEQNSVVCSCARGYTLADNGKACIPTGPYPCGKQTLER

`N=C(N)c1ccc(CNC(=O)[C@H](CCc2ccncc2)NC(=O)[C@H](NS(=O)(=O)Cc2ccccc2)C2Cc3ccccc3C2)cc1` [compound 46]: the Ki in experiment [1] was less than 1000 nM; in experiment [2] it was less than 100 nM; in experiment [3] (setting [5]), less than 10 nM; in experiment [3] (setting [6]) it was less than 5 nM; in experiment [4] (setting [7]), less than 10 nM.
In the case of `COC(=O)c1ccc(CS(=O)(=O)N[C@H](COC(C)(C)C)C(=O)N[C@@H](Cc2cccc(CN)c2)C(=O)NCc2ccc(C(=N)N)cc2)cc1` [compound 64], the inhibition constant (Ki) in experiment [1] was more than 1000 nM; in experiment [2], more than 1000 nM; in experiment [3] (setting [5]) it was less than 10 nM; in experiment [4] (setting [7]), less than 10 nM; in experiment [4] (setting [8]) it was less than 1 nM.
Consider `N=C(N)c1ccc(CNC(=O)[C@H](Cc2cccc(CN)c2)NC(=O)[C@@H](CCCc2ccccc2Cl)NS(=O)(=O)Cc2ccccc2)cc1` [compound 8], for which the Ki is less than 100 nM in experiment [1], less than 100 nM in experiment [2], less than 10 nM in experiment [3] (setting [5]) and less than 10 nM in experiment [4] (setting [7]).
For the compound `CC(C)(C)OC[C@@H](NS(=O)(=O)Cc1ccc(C(=O)O)cc1)C(=O)N[C@@H](Cc1cccc(CN)c1)C(=O)NCc1ccc(C(=N)N)cc1` [compound 65], the inhibition constant (Ki) is less than 1000 nM in experiment [1]; more than 1000 nM in experiment [2]; less than 100 nM in experiment [3] (setting [5]); less than 10 nM in experiment [4] (setting [7]); less than 1 nM in experiment [4] (setting [8]).
Regarding “Bzls-d-Gly(3-O-Phpr)-Phe(3-Ame)-4-Amba×2 TFA [compound 6]”, the Ki in experiment [1] was less than 100 nM; in experiment [2], less than 1000 nM; in experiment [3] (setting [5]), less than 10 nM; in experiment [4] (setting [7]), less than 10 nM.
Regarding `N=C(N)c1ccc(CNC(=O)[C@H](Cc2cccc(CN)c2)NC(=O)[C@H](NS(=O)(=O)Cc2cccc(C(=O)O)c2)C(c2ccccc2)c2ccccc2)cc1` [compound 23], the Ki in experiment [1] was less than 100 nM; in experiment [2], less than 100 nM; in experiment [3] (setting [5]) it was less than 10 nM; in experiment [4] (setting [7]) it was less than 10 nM.
Take `N=C(N)c1ccc(CNC(=O)[C@H](CCc2cc[n+]([O-])cc2)NC(=O)[C@@H](CCCc2ccccc2)NS(=O)(=O)Cc2cccc(C(=O)O)c2)cc1` [compound 42]: the Ki in experiment [1] was more than 1000 nM; in experiment [2], less than 1000 nM; in experiment [3] (setting [5]), less than 100 nM; in experiment [4] (setting [7]), less than 10 nM.
For `N=C(N)c1ccc(CNC(=O)[C@H](CCc2ccncc2)NC(=O)[C@@H](CCc2ccc(O)cc2)NS(=O)(=O)Cc2ccccc2)cc1` [compound 47], the Ki in experiment [1], in experiment [2], in experiment [3] (setting [5]) and in experiment [4] (setting [7]) was less than 10 nM throughout.
On to `N=C(N)c1ccc(CNC(=O)[C@H](CCc2ccc(CN)cc2)NC(=O)[C@@H](CCc2ccc(O)cc2)NS(=O)(=O)Cc2ccccc2)cc1` [compound 26], for which the Ki in experiment [1] was less than 10 nM; in experiment [2] it was less than 1000 nM; in experiment [3] (setting [5]) it was less than 10 nM; in experiment [4] (setting [7]), less than 10 nM.
Regarding `N=C(N)c1ccc(CNC(=O)[C@H](CCc2ccccc2)NC(=O)[C@@H](CCCc2cc[n+]([O-])cc2)NS(=O)(=O)Cc2cccc(C(=O)O)c2)cc1` [compound 54], the inhibition constant (Ki) in experiment [1] is less than 100 nM; in experiment [2], more than 1000 nM; in experiment [3] (setting [5]) it was less than 10 nM; in experiment [4] (setting [7]), less than 10 nM.
As to `N=C(N)c1ccc(CNC(=O)[C@H](Cc2cccc(CN)c2)NC(=O)[C@@H](Cc2cccc3ccccc23)NS(=O)(=O)Cc2ccccc2)cc1` [compound 15], the Ki in experiment [1] is less than 100 nM; in experiment [2] it was less than 100 nM; in experiment [3] (setting [5]) it was less than 10 nM; in experiment [4] (setting [7]), less than 10 nM.
`N=C(N)c1ccc(CNC(=O)[C@H](CCc2ccccc2)NC(=O)[C@@H](CCCc2ccncc2)NS(=O)(=O)Cc2ccccc2)cc1` [compound 49]: the Ki in experiment [1] was less than 100 nM; in experiment [2] it was less than 100 nM; in experiment [3] (setting [5]), less than 10 nM; in experiment [4] (setting [7]), less than 10 nM.
As to `N=C(N)c1ccc(CNC(=O)[C@H](Cc2cccc(CN)c2)NC(=O)[C@@H](CO)NS(=O)(=O)Cc2ccc(C(=O)O)cc2)cc1` [compound 70], the Ki was more than 1000 nM in experiment [1], more than 1000 nM in experiment [2], less than 100 nM in experiment [3] (setting [5]) and less than 10 nM in experiment [4] (setting [7]).
Take `N=C(N)c1ccc(CNC(=O)[C@H](Cc2cccc(CN)c2)NC(=O)[C@@H](CC2CCCCC2)NS(=O)(=O)Cc2ccccc2)cc1` [compound 20]: the Ki is less than 100 nM in experiment [1], less than 1000 nM in experiment [2], less than 10 nM in experiment [3] (setting [5]) and less than 10 nM in experiment [4] (setting [7]).
With `CC(C)(C)OC[C@@H](NS(=O)(=O)Cc1ccccc1)C(=O)N[C@@H](CCc1ccc(C(=N)N)cc1)C(=O)NCc1ccc(C(=N)N)cc1` [compound 77], the inhibitory constant (Ki) was less than 1000 nM in experiment [1], less than 100 nM in experiment [2], less than 10 nM in experiment [3] (setting [5]) and less than 10 nM in experiment [4] (setting [7]).
As for `N=C(N)Nc1ccc(CNC(=O)[C@H](Cc2cccc(CN)c2)NC(=O)[C@@H](CCCc2ccccc2)NS(=O)(=O)Cc2cccc(C(=O)O)c2)cc1` [compound 4, 3-HOOC-Bzls-d-Ppg-Phe(3-Ame)-4-guanidinobenzylamide×2 acetate], the Ki in experiment [1] was more than 1000 nM; in experiment [2] it was more than 1000 nM; in experiment [3] (setting [5]) it was less than 100 nM; in experiment [4] (setting [7]), less than 10 nM.
Turning to `N=C(N)c1ccc(CNC(=O)[C@H](CCc2ccccc2)NC(=O)[C@@H](CCCc2cccnc2)NS(=O)(=O)Cc2cccc(C(=O)O)c2)cc1` [compound 52], the Ki in experiment [1] was less than 10 nM; in experiment [2], less than 100 nM; in experiment [3] (setting [5]), less than 10 nM; in experiment [4] (setting [7]), less than 10 nM.
For the compound `N=C(N)c1ccc(CNC(=O)[C@H](CCc2ccccc2)NC(=O)[C@@H](CCCc2ccccc2)NS(=O)(=O)Cc2cccc(C(=O)O)c2)cc1` [compound 36], the Ki in experiment [1] was less than 100 nM; in experiment [2] it was less than 1000 nM; in experiment [3] (setting [5]) it was less than 10 nM; in experiment [4] (setting [7]), less than 10 nM.
As for `N=C(N)c1ccc(CC[C@H](NC(=O)[C@@H](CC2CCCCC2)NS(=O)(=O)Cc2ccccc2)C(=O)NCc2ccc(C(=N)N)cc2)cc1` [compound 38], the Ki is less than 100 nM in experiment [1]; less than 10 nM in experiment [2]; less than 10 nM in experiment [3] (setting [5]); less than 5 nM in experiment [3] (setting [6]); less than 100 nM in experiment [4] (setting [7]).
On to `N=C(N)c1ccc(CNC(=O)[C@H](Cc2cccc(CN)c2)NC(=O)[C@@H](CCCCN)NS(=O)(=O)Cc2ccccc2)cc1` [compound 59], for which the Ki was less than 1000 nM in experiment [1], more than 1000 nM in experiment [2], less than 100 nM in experiment [3] (setting [5]) and less than 10 nM in experiment [4] (setting [7]).
